The text below walks through data of article PMC8079065, “Design, synthesis and in vitro and in vivo biological evaluation of flurbiprofen amides as new fatty acid amide hydrolase/cyclooxygenase-2 dual inhibitory potential analgesic agents” (Journal of Enzyme Inhibition and Medicinal Chemistry, 2021).

The structures appear in SMILES notation.

Assay [1] has as its system T1, ovine COX-1.
T1 construct: purchased Cayman Chemical Co. 60100
As to the kind of experiment: COX-1 inhibition, oxygen electrode assay. To be noted: 10 µM compound, 10 µM arachidonic acid. The assay is classed as biochemical. As to the method: (§1) The assay was performed according to Meade et al.[58] with minor modifications. An oxygen electrode chamber with integral stirring (Oxygraph System, Hansatech Instruments, King’s Lynn, U.K.) was calibrated daily to ambient temperature and air pressure. The assay buffer contained 100 mM Tris-HCl buffer pH 7.4, 1 µM haematin, 2 mM phenol, 5 mM EDTA, 10 µM substrate (arachidonic acid or 2-AG) (final assay volume was 2 ml). After addition of Flu-AM4 dissolved in ethanol (final assay concentration 1%), a baseline was established for 5 min before initiation of reaction by addition of 200 units of either ovine COX-1 or human recombinant COX-2. The change in oxygen consumption as a measurement of enzyme activity was monitored for approximately 5 min.

For assay [2], the system named is T2, human recombinant COX-2.
T2 construct: purchased Cayman Chemical Co. 60122
As to the kind of experiment: COX-2 inhibition, oxygen electrode assay. It counts as biochemical. To be noted: 10 µM compound, 10 µM 2-AG. The procedure:
as §1, with “[…].)” for “King’s Lynn, U.K.)”, “μM” for “µM”

For assay [3], the system named is CD1 male mice. The experiment in a line: Formalin-evoked hind-paw licking. It counts as in vivo. To be noted: phase I and II. The procedure:
(§2) The behavioural experiments were performed on CD1 male mice (25–30 g Charles Rivers-Italy). They were housed in the animal care facility of the Department Experimental of Pharmacology, University of Naples. The animals were acclimated to their environment for 1 week and had ad libitum access to standard rodent chow pellets VRF1 (purchased from Special Diet Service-SDS). All behavioural tests were performed between 9:00 AM and 13:00 PM, and the animals were only used once. Procedures involving animals and their care were conducted in conformity with international and national law and policies (EU Directive 2010/63/EU for animal experiments). The procedures reported here were approved by the Institutional Committee on the Ethics of Animal Experiments (CSV) of the University of Naples “Federico II” and by the “Ministero della Salute”, protocol no. 2014–0084607. At the end of all experiments for all pain models, the animals were euthanized by CO2 overdose.
During this study, Flu-AM4 was administered systemically (intraperitoneally) and locally (intraplantar 100 microg/paw). […]
Mice received intraplantar injections of formalin in saline (10%,vol/vol; 10 µl/paw). Paw licking was monitored by an observer blind to the experimental treatment for periods of 0–15 min (early phase) and 15–60 min (late phase) immediately after formalin administration. […]

The subject of assay [4] is CD1 male mice. The experiment in a line: Carrageenan-induced paw oedema. The assay is classed as in vivo. The note with it: 10 mg/kg ip, 5 min after carrageenan; p < 0.05. The procedure:
The behavioural experiments were performed on CD1 male mice (25–30 g Charles Rivers-Italy). They were housed in the animal care facility of the Department Experimental of Pharmacology, University of Naples. The animals were acclimated to their environment for 1 week and had ad libitum access to standard rodent chow pellets VRF1 (purchased from Special Diet Service-SDS). All behavioural tests were performed between 9:00 AM and 13:00 PM, and the animals were only used once. Procedures involving animals and their care were conducted in conformity with international and national law and policies (EU Directive 2010/63/EU for animal experiments). The procedures reported here were approved by the Institutional Committee on the Ethics of Animal Experiments (CSV) of the University of Naples “Federico II” and by the “Ministero della Salute”, protocol no. 2014–0084607. […]
Paw edoema was induced by a subplantar injection of 0.1 ml of sterile saline containing 1% λ-carrageenan (Sigma Aldrich) into the right hind paw. Paw volumes were measured by a plethysmometer (Ugo Basile, Italy) at different times after the paw injection. The increase in paw volume was evaluated as the difference between the paw volume measured (Vm) at each time point (1, 2, 4, 6 and 48 h post carrageenan) and the basal paw volume (Vb) measured immediately before carrageenan injection (Δ volume = Vm – Vb).
A general note: The carrageenan paw model is a standard test of acute inflammation.

Assay [5] relates to CD1 male mice. As to the kind of experiment: CCI neuropathic pain model, mechanical allodynia (von Frey test). The assay is classed as in vivo. To be noted: 1 h before test, day 7 and 14. As to the method: as §2
(§3) During this study, Flu-AM4 was administered systemically (intraperitoneally) and locally (intraplantar 100 microg/paw). For systemic administration, the compound was dissolved in PEG400 20% v/v, TWEEN 80 5% (v/v) and sterile saline and used at different doses (1–3–10 mg/kg). Vehicle group was only treated with PEG, TWEEN and sterile saline. For intraplantar administration Flu-AM4 was dissolved in PEG400 10% v/v, TWEEN 80 5% (v/v) and formalin 5% in sterile saline.
(§4) Neuropathic pain was induced by ligation of the sciatic nerve as described previously. […] At day 7 and 14 Mechanical Allodynia (von Frey test) and Mechanical hyperalgesia (Randall-Selitto test) were assessed. […]
To assess for changes in sensation or in the development of mechanical allodynia, sensitivity to tactile stimulation was measured using the Dynamic Plantar Aesthesiometer (DPA, Ugo Basile, Italy). […]

Assay [6] deals with CD1 male mice. The experiment in a line: CCI neuropathic pain model, mechanical hyperalgesia (Randall-Selitto test). It counts as in vivo. The note with it: 1 h before test, day 7 and 14. The procedure: as §2, §3
Paw withdrawal threshold (PWT) to mechanical pressure was measured with a Randall-Selitto Analgesy-Meter for mice (Ugo Basile, Italy). PWT was measured on the ispsilateral paw at 1, 2, 4, 6 and 48 h post carrageenan injection. Each paw was tested twice per session. Cut-off force was set at 100 g.
as §4

In assay [7] the test system is COX-2. As to the kind of experiment: COX-2 expression in the spinal cord of CCI-mice. To be noted: 10 mg/kg ip, 1 h before. It counts as in vivo.
Assay [8] concerns NFκB-p65. The experiment in a line: NF-κB-p65 expression in the spinal cord of CCI-mice. The assay is classed as in vivo. To be noted: 10 mg/kg ip, 1 h before.

For the compound `CC(C(=O)Nc1ncccc1Br)c1ccc(-c2ccccc2)c(F)c1` (stereo not shown) [Flu-AM4, N-(3-Bromopyridin-2-yl)-2-(2-fluoro-(1,1'-biphenyl)-4-yl)propanamide], the “inhibition of cyclooxygenation of AA by COX-1” value in assay [1] is listed as “only partially inhibiting”. Besides, the “inhibition of cyclooxygenation of 2-AG by COX-2” value in assay [2] is on record as “completely inhibited”. Besides, in assay [3] (100 µg intraplantar, co-administered with formalin 5%, p < 0.001), the “formalin-induced paw licking, local application” value was “reduced the paw licking time in both phases”. Besides, the “formalin-induced paw licking, systemic administration” value in assay [3] (10 mg/kg ip, 1 h before formalin, p < 0.001 vs vehicle) was “reduce the behavioural responses in both phases”. Besides, the carrageenan-induced paw oedema result in assay [4] is “reduced paw oedema at 2 and 4 h”. The “CCI-induced mechanical allodynia (Von Frey)” value was “did not show any effect” in assay [5] (1 mg/kg ip); “showed efficacy only at the 14-day time point in both tests” in assay [5] (3 mg/kg ip); “increased paw withdrawal latency in both test and in all experimental time” in assay [5] (10 mg/kg ip). Further, the “CCI-induced mechanical hyperalgesia (Randall-Selitto)” value is “did not show any effect” in assay [6] (1 mg/kg ip); “showed efficacy only at the 14-day time point in both tests” in assay [6] (3 mg/kg ip); “increased paw withdrawal latency in both test and in all experimental time” in assay [6] (10 mg/kg ip). The “COX-2 expression in the spinal cord” value in assay [7] was “significantly reduced this expression”. Also, the “NFκB-p65 expression in the spinal cord” value in assay [8] is “significantly reduced this expression”.
